Data: patent US8748415B2 (priority 2011, dated 2014)

Test system: recombinant NL4-3 virus (Renilla luciferase in nef, Gag P373S)
Experiment: HIV cell culture assay (luciferase activity in MT-2 cells infected with NLRluc recombinant virus)
Format: cell-based
Conditions: NL43, MT-2 cells infected 4-5 days with NLRluc recombinant virus
Outline: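 MT-2 cells in RPMI/10% FBS were infected with recombinant NL4-3 (NLRluc), produced by 293T transfection and titered in MT-2 by luciferase. Serial inhibitor dilutions were present throughout a 4–5 day infection. Antiviral activity was quantified as Renilla luciferase signal via a modified Dual Luciferase read.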

SMILES | EC50 (class symbol) [nM] | EC50 (numeric value) [nM]
C=C(C)[C@@H]1CC[C@]2(CNCCCN)CC[C@]3(C)[C@H](CC[C@@H]4[C@@]5(C)CC=C(c6ccc(C(=O)O)cc6)C(C)(C)[C@@H]5CC[C@]43C)[C@@H]12 [Example 67, 4-((1R,3aS,5aR,5bR,7aR,11aS,11bR,13aR,13bR)-3a-((3-aminopropylamino)methyl)-5a,5b,8,8,11a-pentamethyl-1-(prop-1-en-2-yl)-2,3,3a,4,5,5a,5b,6,7,7a,8,11,11a,11b,12,13,13a,13b-octadecahydro-1H-cyclopenta[a]chrysen-9-yl)benzoic acid] | < 100 | 
C=C(C)[C@@H]1CC[C@]2(CNCC(=O)N3CCCC3)CC[C@]3(C)[C@H](CC[C@@H]4[C@@]5(C)CC=C(c6ccc(C(=O)O)cc6)C(C)(C)[C@@H]5CC[C@]43C)[C@@H]12 [Example 109, 4-((1R,3aS,5aR,5bR,7aR,11aS,11bR,13aR,13bR)-5a,5b,8,8,11a-pentamethyl-3a-((2-oxo-2-(pyrrolidin-1-yl)ethylamino)methyl)-1-(prop-1-en-2-yl)-2,3,3a,4,5,5a,5b,6,7,7a,8,11,11a,11b,12,13,13a,13b-octadecahydro-1H-cyclopenta[a]chrysen-9-yl)benzoic acid] | < 100 | 
C=C(C)[C@@H]1CC[C@]2(CNCC(=O)N3CCC(C(=O)OCC)CC3)CC[C@]3(C)[C@H](CC[C@@H]4[C@@]5(C)CC=C(c6ccc(C(=O)O)cc6)C(C)(C)[C@@H]5CC[C@]43C)[C@@H]12 [Example 111, 4-((1R,3aS,5aR,5bR,7aR,11aS,11bR,13aR,13bR)-3a-((2-(4-(ethoxycarbonyl)piperidin-1-yl)-2-oxoethylamino)methyl)-5a,5b,8,8,11a-pentamethyl-1-(prop-1-en-2-yl)-2,3,3a,4,5,5a,5b,6,7,7a,8,11,11a,11b,12,13,13a,13b-octadecahydro-1H-cyclopenta[a]chrysen-9-yl)benzoic acid] | < 100 | 
C=C(C)[C@@H]1CC[C@]2(CNCC(=O)N3CCC[C@@H]3C(=O)O)CC[C@]3(C)[C@H](CC[C@@H]4[C@@]5(C)CC=C(c6ccc(C(=O)O)cc6)C(C)(C)[C@@H]5CC[C@]43C)[C@@H]12 [Example 114, (R)-1-(2-(((1R,3aS,5aR,5bR,7aR,11aS,11bR,13aR,13bR)-9-(4-carboxyphenyl)-5a,5b,8,8,11a-pentamethyl-1-(prop-1-en-2-yl)-2,3,3a,4,5,5a,5b,6,7,7a,8,11,11a,11b,12,13,13a,13b-octadecahydro-1H-cyclopenta[a]chrysen-3a-yl)methylamino)acetyl)pyrrolidine-2-carboxylic acid] | < 100 | 
C=C(C)[C@@H]1CC[C@]2(CNCC3CCCN3CC)CC[C@]3(C)[C@H](CC[C@@H]4[C@@]5(C)CC=C(c6ccc(C(=O)O)cc6)C(C)(C)[C@@H]5CC[C@]43C)[C@@H]12 (single isomer, unassigned) [Example 3] |  | 30
C=C(C)[C@@H]1CC[C@]2(CNC(=O)[C@@H]3CCCN3C(C)=O)CC[C@]3(C)[C@H](CC[C@@H]4[C@@]5(C)CC=C(c6ccc(C(=O)O)cc6)C(C)(C)[C@@H]5CC[C@]43C)[C@@H]12 [Example 138, 4-((1R,3aS,5aR,5bR,7aR,11aS,11bR,13aR,13bR)-3a-(((S)-1-acetylpyrrolidine-2-carboxamido)methyl)-5a,5b,8,8,11a-pentamethyl-1-(prop-1-en-2-yl)-2,3,3a,4,5,5a,5b,6,7,7a,8,11,11a,11b,12,13,13a,13b-octadecahydro-1H-cyclopenta[a]chrysen-9-yl)benzoic acid] | < 100 | 
C=C(C)[C@@H]1CC[C@]2(CNC(=O)CNC)CC[C@]3(C)[C@H](CC[C@@H]4[C@@]5(C)CC=C(c6ccc(C(=O)O)cc6)C(C)(C)[C@@H]5CC[C@]43C)[C@@H]12 [Example 139, 4-((1R,3aS,5aR,5bR,7aR,11aS,11bR,13aR,13bR)-5a,5b,8,8,11a-pentamethyl-3a-((2-(methylamino)acetamido)methyl)-1-(prop-1-en-2-yl)-2,3,3a,4,5,5a,5b,6,7,7a,8,11,11a,11b,12,13,13a,13b-octadecahydro-1H-cyclopenta[a]chrysen-9-yl)benzoic acid] | < 100 | 
C=C(C)[C@@H]1CC[C@]2(CNCCn3ccnc3C)CC[C@]3(C)[C@H](CC[C@@H]4[C@@]5(C)CC=C(c6ccc(C(=O)O)cc6)C(C)(C)[C@@H]5CC[C@]43C)[C@@H]12 [Example 59, 4-((1R,3aS,5aR,5bR,7aR,11aS,11bR,13aR,13bR)-5a,5b,8,8,11a-pentamethyl-3a-((2-(2-methyl-1H-imidazol-1-yl)ethylamino)methyl)-1-(prop-1-en-2-yl)-2,3,3a,4,5,5a,5b,6,7,7a,8,11,11a,11b,12,13,13a,13b-octadecahydro-1H-cyclopenta[a]chrysen-9-yl)benzoic acid] | < 100 | 
C=C(C)[C@@H]1CC[C@]2(CNCCC(=O)NC)CC[C@]3(C)[C@H](CC[C@@H]4[C@@]5(C)CC=C(c6ccc(C(=O)O)cc6)C(C)(C)[C@@H]5CC[C@]43C)[C@@H]12 [Example 127, 4-((1R,3aS,5aR,5bR,7aR,11aS,11bR,13aR,13bR)-5a,5b,8,8,11a-pentamethyl-3a-((3-(methylamino)-3-oxopropylamino)methyl)-1-(prop-1-en-2-yl)-2,3,3a,4,5,5a,5b,6,7,7a,8,11,11a,11b,12,13,13a,13b-octadecahydro-1H-cyclopenta[a]chrysen-9-yl)benzoic acid] | < 100 | 
C=C(C)[C@@H]1CC[C@]2(CNCC(=O)N3CCCCC3)CC[C@]3(C)[C@H](CC[C@@H]4[C@@]5(C)CC=C(c6ccc(C(=O)O)cc6)C(C)(C)[C@@H]5CC[C@]43C)[C@@H]12 [Example 130, 4-((1R,3aS,5aR,5bR,7aR,11aS,11bR,13aR,13bR)-5a,5b,8,8,11a-pentamethyl-3a-((2-oxo-2-(piperidin-1-yl)ethylamino)methyl)-1-(prop-1-en-2-yl)-2,3,3a,4,5,5a,5b,6,7,7a,8,11,11a,11b,12,13,13a,13b-octadecahydro-1H-cyclopenta[a]chrysen-9-yl)benzoic acid] | < 100 | 
C=C(C)[C@@H]1CC[C@]2(CNCCC(=O)N(C)CCS(C)(=O)=O)CC[C@]3(C)[C@H](CC[C@@H]4[C@@]5(C)CC=C(c6ccc(C(=O)O)cc6)C(C)(C)[C@@H]5CC[C@]43C)[C@@H]12 [Example 125, 4-((1R,3aS,5aR,5bR,7aR,11aS,11bR,13aR,13bR)-5a,5b,8,8,11a-pentamethyl-3a-((3-(methyl(2-(methylsulfonyl)ethyl)amino)-3-oxopropylamino)methyl)-1-(prop-1-en-2-yl)-2,3,3a,4,5,5a,5b,6,7,7a,8,11,11a,11b,12,13,13a,13b-octadecahydro-1H-cyclopenta[a]chrysen-9-yl)benzoic acid] | < 100 | 
C=C(C)[C@@H]1CC[C@]2(CNCCCN3CCS(=O)(=O)CC3)CC[C@]3(C)[C@H](CC[C@@H]4[C@@]5(C)CC=C(c6ccc(C(=O)O)cc6)C(C)(C)[C@@H]5CC[C@]43C)[C@@H]12 [Example 14, 4-((1R,3aS,5aR,5bR,7aR,11aS,11bR,13aR,13bR)-5a,5b,8,8,11a-pentamethyl-1-(prop-1-en-2-yl)-3a-((3-(1-dioxo-thiomorpholino)propylamino)methyl)-2,3,3a,4,5,5a,5b,6,7,7a,8,11,11a,11b,12,13,13a,13b-octadecahydro-1H-cyclopenta[a]chrysen-9-yl)benzoic acid] | < 100 | 
